The structures appear in SMILES notation. In brackets after ≈: the same amount, converted by molar mass. Where two headings read alike, the source gives them in different places.

The IC50 is the concentration that inhibits the measured activity by half. By zone of inhibition is commonly meant the extent of the growth-free halo in a diffusion test.

In data set [1] the test system is A/California/07/09 ((A)H1N1pdm09) viral strain. It is filed as cell-based, influenza virus.
Data set [2] concerns A549 cell culture. The data set can be described thus: Cytotoxicity, colorimetric MTT assay. The class given is cell-based, human. Conditions: for Cytotoxicity (in words): A549, MTT assay; for IC50: Homo sapiens, read-out: Determined IC50. As for the experimental part: The cytotoxicity of compounds (I–V) was assessed on A549 cell culture using a colorimetric MTT assay. A549 cells were incubated for 24 h at 37 °C, 5% CO2 with solutions of the studied compounds at various concentrations. Next, the cell monolayer was washed, and MTT solution was added in a volume of 0.1 mL at a concentration of […]. After 1 h of MTT contact with the cells, the wells were washed, and the formed formazan crystals were dissolved in 0.1 mL of DMSO. The results were recorded at 560 nm on a CLARIOstar Plus plate photometer (BMG LABTECH, Ortenberg, Germany). The IC50 was calculated using GraphPad Prism 6.0.

The subject of data set [3] is Candida tropicalis. In words: Disco-diffuse method, fungicidal activity. It is filed as cell-based. Conditions: for zone of inhibition at 1000 µg/mL / zone of inhibition at 5000 µg/mL / zone of inhibition at 10000 µg/mL / zone of inhibition at 25000 µg/mL / zone of inhibition at 50000 µg/mL: Candida tropicalis, 48 h at 32 °C, read-out: The Zone of Growth Inhibition; for zone of inhibition at 1000 µg/mL: compound concentration 1 mg/mL; for zone of inhibition at 5000 µg/mL: compound concentration 5 mg/mL; for zone of inhibition at 10000 µg/mL: compound concentration 10 mg/mL; for zone of inhibition at 25000 µg/mL: compound concentration 25 mg/mL; for zone of inhibition at 50000 µg/mL: compound concentration 50 mg/mL. The protocol:
(§1) The determination of compounds (I, IV, VI–XI) effect concerning microorganisms was carried out using test strains of Escherichia coli, Bacillus subtilis, and Candida tropicalis. They are not only natural inhabitants of natural biocenoses but also a part of human microbiocenosis. Used microorganisms of bacteria were selected as representatives of the Gram-positive and Gram-negative human microbiota. The antibacterial activity of compounds (I, IV, VI–XI) was studied by the disco-diffuse method. The strain culture was transferred sterile from the mown agar into test tubes with 5 mL of nutrient medium to obtain a “night culture” 12–15 h before the experiment. Beef-extract agar (BEA) was used as a nutrient medium for the development of bacterial cells, and Sabouraud’s medium was used for yeast. Bacterial cultures were incubated in a thermostat at 37 °C, and yeast cultures at 32 °C. The melted BEA was poured sterile into Petri dishes (diameter 90 mm) and evenly distributed over the bottom of the dish, covered with a lid, and left on the table until it solidified completely. Next, the dishes with BEA were inoculated with a “lawn” by introducing a strain culture (suspension titer −1–2 × 10^8 CFU/mL) in an amount of 500 µL and evenly distributing it with a sterile spatula. The dishes were left for 60–90 min to dry the culture. Compounds (I, IV, VI–XI) were previously dissolved, and the sequential dilutions were applied to disks. Dimethyl sulfoxide (DMSO) was used as a solvent for the DAA. Water was used as a solvent for their potassium salts. […] This disk was impregnated with a solution of the test compound amounting to 100 μL and incubated in the dark for 24 h at 37 °C (Escherichia coli and Bacillus subtilis) and 48 h at 32 °C (Candida tropicalis). The solution diffuses, forming a concentration gradient of the test compound around the disc. After the incubation period, the inhibition zone or stimulation of microbial growth around the disk was measured in the experimental and control samples. A conclusion was made about the degree (bactericidal) toxicity of compounds. Solvent-treated disks (DMSO) were used as controls. The experiments were performed three times.

In data set [4] the test system is Bacillus subtilis. The data set can be described thus: Disco-diffuse method, antibacterial activity. It is filed as cell-based. The following applies: for zone of inhibition at 1000 µg/mL / zone of inhibition at 5000 µg/mL / zone of inhibition at 10000 µg/mL / zone of inhibition at 25000 µg/mL / zone of inhibition at 50000 µg/mL / MIC: Bacillus subtilis; for zone of inhibition at 1000 µg/mL: compound concentration 1 mg/mL; for zone of inhibition at 1000 µg/mL / zone of inhibition at 5000 µg/mL / zone of inhibition at 10000 µg/mL / zone of inhibition at 25000 µg/mL / zone of inhibition at 50000 µg/mL: read-out: The Zone of Growth Inhibition; for zone of inhibition at 5000 µg/mL: compound concentration 5 mg/mL; for zone of inhibition at 10000 µg/mL: compound concentration 10 mg/mL; for zone of inhibition at 25000 µg/mL: compound concentration 25 mg/mL; for MIC: from disc diffusion, read-out: minimum inhibitory concentration. As for the experimental part: as §1
On the technique in general: A growth-free zone around the sample is the usual read-out of agar diffusion tests.

Data set [5] concerns Escherichia coli. In words: Disco-diffuse method, antibacterial activity. The class given is cell-based. Conditions: for zone of inhibition at 1000 µg/mL / zone of inhibition at 5000 µg/mL / zone of inhibition at 10000 µg/mL / zone of inhibition at 25000 µg/mL / zone of inhibition at 50000 µg/mL / MIC: Escherichia coli; for zone of inhibition at 1000 µg/mL: compound concentration 1 mg/mL; for zone of inhibition at 1000 µg/mL / zone of inhibition at 5000 µg/mL / zone of inhibition at 10000 µg/mL / zone of inhibition at 25000 µg/mL / zone of inhibition at 50000 µg/mL: read-out: The Zone of Growth Inhibition; for zone of inhibition at 5000 µg/mL: compound concentration 5 mg/mL; for zone of inhibition at 10000 µg/mL: compound concentration 10 mg/mL; for zone of inhibition at 25000 µg/mL: compound concentration 25 mg/mL; for MIC: from disc diffusion, read-out: minimum inhibitory concentration. As for the experimental part: as §1

The mark [6] stands for this setting: A549, therapeutic scheme, 24 h after stimulation, working concentration.
[7] abbreviates: at the working concentrations used to assess antiviral activity.
Setting [8] is: compound concentration 50 mg/mL, 24 h at 37 °C.

In the case of `CC(C)c1cc2c(cc1Br)C1(C)CCCC(C)(C(=O)[O-])C1CC2.[K+]` (centres unmarked) [III, Potassium 12-bromodehydroabietate], in data set [1] (setting [6]), the “Content of viral protein NP inside the cells (ELISA)” value is given as “decrease in the content of the viral protein NP inside the cells”. Further, the “Cytotoxicity (in words)” value in data set [2] is listed as “highest cytotoxicity”. Also, in data set [2] (A549, 24 h), the IC50 amounted to 140 µg/mL. Besides, the “Decrease in viable cells” value in data set [2] (setting [7]) turned out to be 50%.
As for `CC(C)c1cc2c(cc1S(=O)(=O)O)C1(C)CCCC(C)(C(=O)O)C1CC2` (centres unmarked) [I, 12-sulfodehydroabietic acid], the “Fungicidal activity (in words)” value in data set [3] (1-50 mg/mL) is “did not show either antibacterial activity or fungicidal activity”. The zone of inhibition at 1000 µg/mL in data set [3], in data set [4] (24 h at 37 °C) and in data set [5] (24 h at 37 °C) was 0 mm in each case. Moreover, the zone of inhibition at 5000 µg/mL in data set [3], in data set [4] (24 h at 37 °C) and in data set [5] (24 h at 37 °C) was 0 mm each time. Also, the zone of inhibition at 10000 µg/mL in data set [3], in data set [4] (24 h at 37 °C) and in data set [5] (24 h at 37 °C) was 0 mm throughout. The zone of inhibition at 25000 µg/mL in data set [3], in data set [4] (24 h at 37 °C) and in data set [5] (24 h at 37 °C) was 0 mm in each case. Further, the zone of inhibition at 50000 µg/mL in data set [3], in data set [4] (setting [8]) and in data set [5] (setting [8]) was 0 mm throughout. Moreover, the “Antibacterial activity (in words)” value in data set [4] (1-50 mg/mL) and in data set [5] (1-50 mg/mL) was “did not show either antibacterial activity or fungicidal activity” each time. In data set [1] (A549, in vitro, working concentration), the “Antiviral activity (in words)” value is “did not show antiviral activity”. The “Cytotoxicity (in words)” value in data set [2] is reported as “weak toxicity”. Moreover, the IC50 in data set [2] (A549, 24 h incubation, MTT assay) was more than 518 µg/mL. In addition, in data set [2] (setting [7]), the “Cell viability (in words)” value is “did not cause a significant decrease in cell viability”.
Take `CC(C)C1=CC2=CCC3C(C)(C(=O)[O-])CCCC3(C)C2CC1.[K+]` (centres unmarked) [II, Potassium abietate]: in data set [1], the Dose-dependent antiviral effect entry is listed as “led to a decrease in the antiviral effect”. For the same compound, in data set [1] (setting [6]), the “Content of viral protein NP inside the cells (ELISA)” value is reported as “decrease in the content of the viral protein NP inside the cells” and the “Viral load in supernatants obtained from cells (NP ELISA), vs control” value is on record as “slight decrease in the viral load”. Besides, the “Cytotoxicity (in words)” value in data set [2] is listed as “highest cytotoxicity”. Also, the IC50 in data set [2] (A549, 24 h) came out at 240 µg/mL. Also, the “Decrease in viable cells” value in data set [2] (setting [7]) worked out at 50%.
As to `CC(C)C1=CC2=CCC3C(C)(CO)CCCC3(C)C2CC1` (centres unmarked) [XI, Abietinol], the zone of inhibition at 1000 µg/mL in data set [3] came out at 0 mm; in data set [4] (24 h at 37 °C) it was 1 ± 0.15 mm; in data set [5] (24 h at 37 °C), 0 mm. Moreover, the results for the zone of inhibition at 5000 µg/mL in data set [3], in data set [4] (24 h at 37 °C) and in data set [5] (24 h at 37 °C) were 1 ± 0.1 mm, 2.2 ± 0.05 mm and 1 ± 0.1 mm, respectively. In addition, the zone of inhibition at 10000 µg/mL in data set [3] was 2 ± 0.1 mm; in data set [4] (24 h at 37 °C) it was 2 ± 0.15 mm; in data set [5] (24 h at 37 °C) it was 1 ± 0.1 mm. Also, the zone of inhibition at 25000 µg/mL in data set [3] worked out at 4 ± 0.25 mm; in data set [4] (24 h at 37 °C), 4 ± 0.12 mm; in data set [5] (24 h at 37 °C) it was 3.5 ± 0.21 mm. In addition, the zone of inhibition at 50000 µg/mL in data set [3] was 4.2 ± 0.15 mm; in data set [4] (setting [8]) it was 4 ± 0.09 mm; in data set [5] (setting [8]), 5 ± 0.14 mm. Also, the MIC in data set [4] (1-50 mg/mL) is 1000 µg/mL (≈ 3.47 mM); in data set [5] (1-50 mg/mL) it was 5000 µg/mL (≈ 17.3 mM).
Take `CC(C)c1cc2c(cc1Br)C1(C)CCCC(C)(C(=O)O)C1CC2` (centres unmarked) [X, 12-bromodehydroabietic acid]: in data set [3], the zone of inhibition at 1000 µg/mL was determined as 0 mm, the zone of inhibition at 5000 µg/mL amounted to 0 mm, the zone of inhibition at 10000 µg/mL was found to be 0 mm and the zone of inhibition at 25000 µg/mL is 1.1 ± 0.24 mm. Further, the zone of inhibition at 50000 µg/mL in data set [3] amounted to 1.9 ± 0.16 mm. In data set [4] (24 h at 37 °C), the zone of inhibition at 1000 µg/mL was 3.1 ± 0.25 mm, the zone of inhibition at 5000 µg/mL worked out at 9.5 ± 0.05 mm, the zone of inhibition at 10000 µg/mL is 9.7 ± 0.04 mm and the zone of inhibition at 25000 µg/mL was found to be 10.5 ± 0.03 mm. The MIC in data set [4] (1-50 mg/mL) came out at 1000 µg/mL (≈ 2.64 mM). In addition, the “The Zone of Growth Inhibition” value in data set [4] (setting [8]) was “Does not diff”. For the same compound, in data set [5] (24 h at 37 °C), the zone of inhibition at 1000 µg/mL turned out to be 0.9 ± 0.1 mm, the zone of inhibition at 5000 µg/mL turned out to be 2 ± 0.07 mm, the zone of inhibition at 10000 µg/mL amounted to 7.6 ± 0.03 mm and the zone of inhibition at 25000 µg/mL worked out at 4.6 ± 0.05 mm. In data set [5] (1-50 mg/mL), the MIC worked out at 1000 µg/mL (≈ 2.64 mM). Also, the “The Zone of Growth Inhibition” value in data set [5] (setting [8]) is listed as “Does not diff”.
Consider `CC(C)C1=CC2=CC[C@@H]3[C@](C)(CCC[C@@]3(C)C(=O)O)[C@H]2CC1` [IX, Abietic acid], for which the zone of inhibition at 1000 µg/mL in data set [3] was 0 mm; in data set [4] (24 h at 37 °C), 1 ± 0.15 mm; in data set [5] (24 h at 37 °C), 0 mm. The zone of inhibition at 5000 µg/mL in data set [3] amounted to 0 mm; in data set [4] (24 h at 37 °C), 2.1 ± 0.03 mm; in data set [5] (24 h at 37 °C), 1 ± 0.1 mm. Moreover, the zone of inhibition at 10000 µg/mL was found to be 0 mm in data set [3], 2 ± 0.05 mm in data set [4] (24 h at 37 °C) and 1 ± 0.1 mm in data set [5] (24 h at 37 °C). The zone of inhibition at 25000 µg/mL in data set [3] came to 1 ± 0.11 mm; in data set [4] (24 h at 37 °C) it was 4 ± 0.1 mm; in data set [5] (24 h at 37 °C), 2 ± 0.24 mm. Further, the figures for the zone of inhibition at 50000 µg/mL in data set [3], in data set [4] (setting [8]) and in data set [5] (setting [8]) were 1 ± 0.15 mm, 5 ± 1.04 mm and 3 ± 0.14 mm, respectively. The MIC in data set [4] (1-50 mg/mL) is 1000 µg/mL (≈ 3.31 mM); in data set [5] (1-50 mg/mL), 5000 µg/mL (≈ 16.5 mM).

For the origin of these results see paper PMC8270270, “Rosin Derivatives as a Platform for the Antiviral Drug Design” (Molecules, 2021).
